Results published in patent US10457662B2, “Substituted amides for treating and preventing cancer” (The Regents of the University of Michigan, priority 2015, dated 2019).
Read-outs that look alike come from different tables or passages of the source.

Assays:
GRP78, CHOP, ATF3, GDF15 = experiment: Western blotting of stress responsive proteins in MiaPaCa-2; format: cell-based
Experimental: FIG. 11: QN523 induces protein expression of stress markers dose-dependently.
This example describes the validation of biomarkers GDF15, ATF3, DDIT3, HSPA5, WIPI1, GABARAPL1 and MAP1LC3B in pancreatic cancer cell lines. To validate the findings from bioinformatics analysis basing on Bru-seq experiments, the proposed biomarkers were further tested in pancreatic cancer cell lines. […] However, the potency of Sulindac is much lower than that of QN523, with IC50 of 300 μM in MiaPaCa-2.
(§1) In addition, primary antibodies for LC3B, survivin, cyclin D1, Stat3 and phosphorylated Stat3 (Y705) are from Cell Signaling Technology.

[1] = test system: WIPI1, GABARAPL1 and LC3B; experiment: Western blotting of autophagy related proteins in MiaPaCa-2; format: cell-based; details: for activation of autophagy: at their IC50 values
Experimental: FIG. 12: QN523 induces protein expression of autophagy markers dose-dependently.
Significant induction of the protein was detected at concentrations as low as 0.25 μM.
as §1

MiaPaCa-2 = experiment: MTT assay, MiaPaCa-2; details: Homo sapiens
Experimental: Cells were treated with QN523 for 1, 4, 8, 24, 48, 72 h and left in culture in fresh media. MTT assay was performed 72 h after initiation of treatment. Data points represent Mean±SD from three independent experiments.
(§2) Experiments conducted during the course of developing embodiments for the present invention involved performance of a phenotypic screen of a library of 20,000 small-molecules representing five million compounds. […] Subsequently, a lead optimization campaign was performed to synthesize a series of close analogs. Initially, the 50 analogs were tested in three pancreatic cancer cell lines using MTT assay (Table 1).
(§3) For in vitro studies, compounds were dissolved in DMSO at 10 mM as stock solutions and stored at −20° C. For in vivo studies, QN523 was dissolved in a vehicle containing 5% DMSO, 35% propylene glycol and 60% saline, and administered at 100 uL through intraperitoneal injections.

Panc-1 = experiment: MTT assay, Panc-1; format: cell-based; details: Homo sapiens
Experimental: as §2, §3

[2] = test system: three pancreatic cancer cell lines; experiment: MTT assay, three pancreatic cancer cell lines; format: cell-based; details: read-out: Mark: IC50 lower than 1 μM in at least one cell line, Table 1
BxPC-3 = experiment: MTT assay, BxPC-3; format: cell-based; details: Homo sapiens
Experimental: as §2, §3

[3] = MIA PaCa-2, read-out: IC50 Values MiaPaCa-2
[4] = PANC-1, MTT assay, Mean ± SD, three independent experiments, read-out: IC50 Values Panc-1
[5] = BXPC-3, MTT assay, Mean ± SD, three independent experiments, read-out: IC50 Values BxPC-3
[6] = MIA PaCa-2, read-out: IC50 Values MiaPaCa-2, MTT assay, Mean ± SD, three independent experiments
[7] = PANC-1, read-out: IC50 Values Panc-1
[8] = BXPC-3, read-out: IC50 Values BxPC-3

Compound	IC50 (MiaPaCa-2; [3])	IC50 (Panc-1; [4])	IC50 [2]	IC50 (BxPC-3; [5])	other results
CN1CCN(CCCN2c3ccccc3Sc3ccc(Cl)cc32)CC1 [prochlorperazine]					induction of GRP78 and CHOP (GRP78, CHOP, ATF3, GDF15; tested at IC50 value): most robust induction of GRP78 and CHOP; activation of autophagy [1]: robust activation of autophagy
Cc1cnc(C(=O)Nc2cc(OCCN3CCOCC3)cc3cccnc23)cn1 [QN138, 5-Methyl-pyrazine-2-carboxylic acid [6-(2-morpholin-4-yl-ethoxy)-quinolin-8-yl]-amide]	0.73 ± 0.15 µM	3.5 ± 0.5 µM	< 1 µM	2 ± 0.87 µM	
O=C(Nc1cccc2cccnc12)c1ncccn1 [QN567, Pyrimidine-2-carboxylic acid quinolin-8-ylamide]			< 1 µM		IC50 (MiaPaCa-2; [6]): 0.33 ± 0.06 µM; IC50 (Panc-1; [7]): > 10 µM; IC50 (BxPC-3; [8]): > 10 µM
O=C(Nc1cc(F)cc2cccnc12)c1ncccn1 [QN658, Pyrimidine-2-carboxylic acid (6-fluoroquinolin-8-yl)amide]	0.3 ± 0.1 µM	5.33 ± 1.53 µM	< 1 µM	> 10 µM	
CSc1ccc2c(c1)N(CCC1CCCCN1C)c1ccccc1S2 (stereo not drawn) [thioridazine]					activation of autophagy [1]: robust activation of autophagy
O=C(Nc1cc(Cl)cc2cccnc12)c1ncccn1 [QN794, N-(6-Chloroquinolin-8-yl)pyrimidine-2-carboxamide]	0.8 ± 0.05 µM	4.67 ± 1.53 µM	< 1 µM	> 10 µM	
Cc1cnc(C(=O)Nc2cc(F)cc3cccnc23)cn1 [QN652, 5-Methylpyrazine-2-carboxylic acid (6-fluoroquinolin-8-yl)amide]	0.31 ± 0.16 µM	2.12 ± 0.94 µM	< 1 µM	> 10 µM	
O=C(Nc1ccc(Br)c2cccnc12)c1cnccn1 [QN618, Pyrazine-2-carboxylic acid (5-bromoquinolin-8-yl)amide]	0.75 ± 0.09 µM	7.02 ± 2.92 µM	< 1 µM	7.51 ± 1.32 µM	
CC1=C(CC(=O)O)c2cc(F)ccc2/C1=C\c1ccc([S+](C)[O-])cc1 (stereo not drawn) [Sulindac]					IC50 (MiaPaCa-2; MIA PaCa-2, read-out: IC50 in MiaPaCa-2): 300 µM; protein levels of stress responsive markers HSPA5, DDIT3, ATF3 and GDF15 (GRP78, CHOP, ATF3, GDF15; 72 h, western blotting): induced; autophagy-related markers WIPI1, GABARAPL1 and LC3B ([1]; 72 h treatment, western blotting): Accumulation
Cc1cnc(C(=O)Nc2ccc3ncccc3c2)cn1 [QN520, 5-Methylpyrazine-2-carboxylic acid quinolin-6-ylamide]	> 10 µM	> 10 µM		> 10 µM	
Cc1cnc(C(=O)Nc2cc(Cl)cc3cccnc23)cn1 [QN793, N-(6-Chloroquinolin-8-yl)-5-methylpyrazine-2-carboxamide]	1.5 ± 0.5 µM	1.77 ± 0.25 µM		5.2 ± 0.3 µM	
O=C(Nc1cccc2cccnc12)c1cccc(Br)n1 [QN530, 6-Bromopyridine-2-carboxylic acid quinolin-8-ylamide]					IC50 (MiaPaCa-2; [6]): > 10 µM; IC50 (Panc-1; [7]): > 10 µM; IC50 (BxPC-3; [8]): > 10 µM

Second part, led by results:

IC50 (MiaPaCa-2; [3])	IC50 (Panc-1; [4])	IC50 [2]	IC50 (BxPC-3; [5])	Compound	other results
0.87 ± 0.15 µM	9.5 ± 0.5 µM	< 1 µM	9.17 ± 0.76 µM	CC(C)(C)OC(=O)NCCOc1cc(NC(=O)c2cnccn2)c2ncccc2c1 [QN151, (2-{8-[(Pyrazine-2-carbonyl)amino]quinolin-6-yloxy}ethyl)carbamic acid tert-butyl ester]	
0.28 ± 0.04 µM	0.77 ± 0.21 µM	< 1 µM	5.53 ± 1.18 µM	COc1cc(NC(=O)c2cnccn2)c2ncccc2c1 [QN107]	
0.37 ± 0.15 µM	0.53 ± 0.21 µM	< 1 µM	4.33 ± 0.76 µM	O=C(Nc1cc(OCCF)cc2cccnc12)c1cnccn1 [QN144, Pyrazine-2-carboxylic acid [6-(2-fluoro-ethoxy)-quinolin-8-yl]amide]	
0.67 ± 0.12 µM	2.17 ± 0.76 µM	< 1 µM	3.67 ± 0.76 µM	Cc1cnc(C(=O)Nc2cc(OCCNC(=O)OC(C)(C)C)cc3cccnc23)cn1 [QN152, (2-{8-[(5-Methylpyrazine-2-carbonyl)amino]quinolin-6-yloxy}ethyl)carbamic acid tert-butyl ester]	
0.27 ± 0.15 µM	0.83 ± 0.21 µM	< 1 µM	6.7 ± 0.6 µM	COc1cc(NC(=O)c2cnc(C)cn2)c2ncccc2c1 [QN663, 5-Methylpyrazine-2-carboxylic acid (6-methoxyquinolin-8-yl)amide]	
0.13 ± 0.06 µM	0.67 ± 0.25 µM	< 1 µM	> 10 µM	O=C(Nc1cc(F)cc2cccnc12)c1cnccn1 [QN651, Pyrazine-2-carboxylic acid (6-fluoro-quinolin-8-yl)amide]	
> 10 µM	> 10 µM		> 10 µM	CC(C)(C)OC(=O)NCCOc1cc(NC(=O)c2ncccn2)c2ncccc2c1 [QN153, (2-{8-[(Pyrimidine-2-carbonyl)amino]quinolin-6-yloxy}ethyl)carbamic acid tert-butyl ester]	
